From PubChem BioAssay (NCI)
“And” between values parts separate entries of the source, which are not always exact repeats. Equal values may be shown once.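 48-hour exposure; five concentrations; linearly interpolated endpoints. GI50 marks 50% less growth. TGI marks complete inhibition of growth.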

Assays:
Experiment in all cases: inhibition of tumour cell growth, NCI panel, 48 h
[1] = system: DU-145 prostate
[2] = system: RPMI-8226 leukemia
[3] = system: UO-31 renal
[4] = system: MDA-N
[5] = system: U251 CNS
[6] = system: OVCAR-5 ovarian
[7] = system: HL-60(TB) leukemia
[8] = system: ACHN renal
[9] = system: CAKI-1 renal
[10] = system: SNB-75 CNS

SMILES	TGI [1] [µM]	TGI [2]	TGI [3]	TGI [4] [µM]	TGI [5]	TGI [6]	TGI [7]	TGI [8]	TGI [9]	TGI [10]	GI50 [1] [µM]	GI50 [2]	GI50 [3] [µM]	GI50 [5] [µM]	GI50 [6]	GI50 [7]	GI50 [8] [µM]	GI50 [10] [µM]	GI50 [9] [µM]
Cc1c(O)nc(-n2[nH]c3c(c2=O)CCCC3)[nH]c1=O	> 100	> 100 µM	> 100 µM	> 100	> 100 µM	> 100 µM	> 100 µM	> 100 µM	> 100 µM										
C=C(C(=O)OCC)C(=O)OCC	> 100	> 100 µM	> 100 µM	> 100	> 100 µM	> 100 µM		> 100 µM	> 100 µM	> 100 µM									
CCCCCCCCCCCCCCCCNc1cccc2ccccc12		> 100 µM	> 100 µM		> 100 µM		> 100 µM	> 100 µM		> 100 µM									
CCOC(=O)C1S/C(=N\C(=N)N[N+](=O)[O-])N=C1C (centres undefined)		> 100 µM	> 100 µM		> 100 µM	> 100 µM	> 100 µM	> 100 µM		> 100 µM									
S=c1c2cn[nH]c2nc2scc(-c3ccc(Cl)cc3)n12		64.9 µM	41.8 µM	26.2	25.8 µM	29.4 µM		27 µM	24.6 µM	28.2 µM									
CC(NC(=O)Cc1ccccc1)NC(=O)C(C)C(=O)Nc1ccccc1 (centres undefined)	> 100	> 100 µM	> 100 µM	> 100	> 100 µM	> 100 µM		> 100 µM	> 100 µM	> 100 µM									
Cc1c(/C=N\NC(=S)NCCNC(=S)N/N=C\c2c(C)n(C)n(-c3ccccc3)c2=O)c(=O)n(-c2ccccc2)n1C	> 100		> 100 µM		> 100 µM	> 100 µM		> 100 µM	> 100 µM	> 100 µM									
COC(=O)C(Cc1ccc2c(c1)CCC2)Cc1ccc2c(c1)CCC2	> 100	> 100 µM	> 100 µM	> 100	> 100 µM	> 100 µM	88.8 µM	> 100 µM		> 100 µM									
CC(=O)NC1C(OCc2ccccc2)OC(CO)C(O)C1OCC(=O)N[C@@H](C)C(=O)N[C@H](CCC(=O)NCCCNc1c2ccccc2nc2cccc([N+](=O)[O-])c12)C(N)=O (some centres undefined)		0.242 µM	0.341 µM	0.102	4.46 µM	5.8 µM	> 49.7 µM	0.115 µM	0.334 µM	0.362 µM									
CN1CCOC1c1ccccc1O (centres undefined)		> 100 µM	> 100 µM	> 100	> 100 µM	> 100 µM		> 100 µM	> 100 µM	> 100 µM									
C=C1CC(C#N)(C#N)[C@H]2C3CCCC3C[C@@H]12 (some centres undefined) (tested in a mixture with another compound)	> 100		35.3 µM		40.4 µM		54.2 µM	61.1 µM											
CC(C)c1cc2c(c(O)c1O)[C@@]1(C(=O)O)CCCC(C)(C)[C@@H]1CC2	> 100	30.3 µM	27.4 µM	> 100	30.3 µM	40 µM		26.2 µM	51.8 µM	34 µM									
COc1ccc(C2OC(c3ccncc3)=NN2C)cc1F (centres undefined)	> 100	> 100 µM	> 100 µM	> 100	> 100 µM	> 100 µM	> 100 µM	> 100 µM	> 100 µM										
O=C1OCC/C1=N/O		> 100 µM	> 100 µM		> 100 µM	> 100 µM	> 100 µM	> 100 µM		> 100 µM									
C[n+]1c(/C=C/c2c(O)ccc3ccccc23)ccc2ccccc21	13.9	10.1 µM	12 µM		13.8 µM	15.2 µM	13.4 µM	11.4 µM	12.3 µM	14.2 µM	6.76	1.73 µM	1.68	5.43	7.19 µM	5.7 µM	5.1	6.15	5.39
CC(C)(C)[Si](C)(C)OCC1OC(n2ccc(=O)[nH]c2=O)C(O[Si](C)(C)C(C)(C)C)/C1=C/C#N (centres undefined)	> 100	> 100 µM	> 100 µM	> 85.7	> 44 µM	> 100 µM		> 60.5 µM	98.2 µM	> 100 µM									
CC1=CCC([C@@](C)(O)CCCC(C)(C)N=C=S)CC1 (some centres undefined)	30.7	67.3 µM	26.7 µM	32.4	32.9 µM	34.9 µM	43.8 µM	30.5 µM		32.4 µM									
CC(O)CNC(=O)C(C)Oc1ccc(OCC2CCCCC2)cc1 (centres undefined)			> 100 µM		> 100 µM		> 100 µM	> 100 µM		> 100 µM									

SMILES	TGI [1] [µM]	TGI [2]	TGI [3]	TGI [4] [µM]	TGI [5]	TGI [6]	TGI [7]	TGI [8]	TGI [9]	TGI [10]	GI50 [1] [µM]	GI50 [2]	GI50 [3] [µM]	GI50 [5] [µM]	GI50 [6]	GI50 [7]	GI50 [8] [µM]	GI50 [10] [µM]	GI50 [9] [µM]
NC(=O)c1c(NC(=O)c2ccccc2)sc2c1CCC(=O)C2	> 100	0.751 µM	2.32 µM		26.7 µM	11 µM	3.57 µM	2.48 µM	3.95 µM	6.05 µM	4.14	0.248 µM	0.865	0.955	1.77 µM	0.378 µM	0.698	1.23	0.637
CC1(C)[C@@H]2CC[C@@]1(C)CN(CCC[N+](C)(C)C)C2	> 100	> 100 µM	> 100 µM	> 100	> 100 µM	> 100 µM		> 100 µM	> 100 µM	> 100 µM									
O=C1c2ccccc2C(=O)N1n1c(Cc2ccc([N+](=O)[O-])cc2)n[nH]c1=O	> 100	> 100 µM	> 100 µM	> 100	> 100 µM	> 100 µM		> 100 µM	> 100 µM	> 100 µM									
C[N+](C)([O-])CCOc1cc2c(c3ccccc13)-c1ccccc1C2=O		44.1 µM	40 µM		25.8 µM	59.2 µM	35.5 µM		61.9 µM	53.2 µM									
O=P(O)(O)C(N=C(Nc1ccccc1)Nc1ccccc1)P(=O)(O)O	> 100		> 100 µM	> 100		> 100 µM		> 100 µM	> 100 µM										
OC[C@H]1O[C@@H]2O[C@@](COCc3ccccc3)([C@H](OCc3ccccc3)[C@H]2O)[C@@H]1OCc1ccccc1	30.1	32.4 µM	29.4 µM		29.5 µM	31.3 µM	38.2 µM	31.1 µM	29.8 µM	29.7 µM									
CCOC(=O)N1CCC(N[C@@H]2c3cc4c(cc3C(c3cc(OC)c(O)c(OC)c3)C3C(=O)OC[C@@H]32)OCO4)CC1 (some centres undefined)		18.7 µM and > 25 µM	3.21 µM and 4.14 µM		6.51 µM and 8.32 µM	14 µM and 17.4 µM	2 µM and 5.46 µM	1.63 µM and 1.86 µM	2.35 µM and 2.26 µM	15.2 µM and 24.8 µM		1.46 µM and 4.12 µM			3.3 µM and 7.49 µM	0.221 µM and 0.468 µM			
O=[N+]([O-])C(=C(Nc1cccc2cccnc12)Nc1cccc2cccnc12)C(Cl)=C(Cl)Cl	> 100	> 100 µM	> 100 µM	> 69.7	> 100 µM	> 100 µM		> 51.1 µM	> 92.2 µM	> 100 µM									
COc1cc2c(cc1OC)C1C3CCCCC3CCN1CC2 (centres undefined)	> 100				> 100 µM	> 100 µM	> 100 µM	> 100 µM	> 100 µM	> 100 µM									
Cc1ccc(/C=N\NC2c3cc(Cl)ccc3Nc3nc(=O)[nH]c(C)c32)cc1 (centres undefined)		> 100 µM	> 100 µM		> 100 µM		> 100 µM	> 100 µM		> 100 µM									
CNc1cc2c(c3ccccc13)C(CCl)CN2C(=O)c1cc2cc(OC)c(OC)c(OC)c2[nH]1 (centres undefined)		0.0649 µM		0.00856	0.133 µM		0.000667 µM	0.00154 µM	0.00431 µM and 0.022 µM	0.00802 µM									
COc1cc(O)c2c(c1)C(=O)c1cc3c(c(O)c1C2=O)C(OC1OC(C)C(OC)C(O)C1OC)C(OC)C(C)(O)C3=O (centres undefined)		4.6 µM			22.8 µM	33.6 µM	> 100 µM	12.8 µM	11 µM	16 µM									
CCOc1cc(/C=C2/C(C)=NN(c3cccc(Cl)c3)/C2=N/c2nc3ccccc3s2)ccc1O	> 100	> 100 µM	52.8 µM		43 µM	> 100 µM	12.4 µM	63.6 µM		> 100 µM									
CSC1=N/C(=C\c2ccc(C)cc2)C(=O)N1CN1CCCCC1	> 100	> 100 µM	> 100 µM	> 100	> 100 µM	> 100 µM		> 100 µM		> 100 µM									
CCOS(C)(=O)=O	> 100		> 100 µM	> 100	> 100 µM	> 100 µM	> 100 µM	> 100 µM	> 100 µM										
On1c(-c2ccccc2)c(-c2ccccc2N2CCCC2)c2ccccc21		> 100 µM			> 100 µM	> 100 µM	> 100 µM	> 100 µM	> 100 µM	> 100 µM									
COc1cc(OC)c2c(=O)cc(-c3ccc(OC)c(OC)c3OC)oc2c1		> 100 µM				> 100 µM	> 100 µM	> 100 µM	> 100 µM	45.3 µM									
